Patent publication US20220048876A1, “INSECTICIDAL COMPOUNDS” (SYNGENTA PARTICIPATIONS AG, priority 2018, published 2022)
Where two headings read alike, the source gives them in different places.

Assays:
Assay type in all cases: in vivo
Spodoptera littoralis = Spodoptera littoralis (Egyptian cotton leaf worm), cotton leaf discs; conditions: foliar, 72 h, read-out: control (mortality, anti-feedant effect or growth inhibition)
Description: Spodoptera littoralis (Egyptian Cotton Leaf Worm)
Cotton leaf discs were placed onto agar in 24-well microtiter plates and sprayed with aqueous test solutions prepared from 10′000 ppm DMSO stock solutions. After drying the leaf discs were infested with five L1 larvae. The samples were assessed for mortality, anti-feeding effect, and growth inhibition in comparison to untreated samples 3 days after infestation. Control of Spodoptera littoralis by a test sample is given when at least one of the categories mortality, anti-feedant effect, and growth inhibition is higher than the untreated sample.

Euschistus heros = Euschistus heros (neotropical brown stink bug), sprayed soybean leaves; conditions: 120 h, read-out: effect in at least one of the two categories (mortality or growth inhibition); for percent effect (mortality or growth inhibition) at 200 ppm: application rate 200 ppm, N2 nymphs, 5 days after infestation
Description: Euschistus heros(Neotropical Brown Stink Bug)
Soybean leaves on agar in 24-well microtiter plates were sprayed with aqueous test solutions prepared from 10′000 ppm DMSO stock solutions. After drying the leaves were infested with N2 nymphs. The samples were assessed for mortality and growth inhibition in comparison to untreated samples 5 days after infestation.

Plutella xylostella = Plutella xylostella (diamond back moth), artificial diet; conditions: 120 h, read-out: effect in at least one of the two categories (mortality or growth inhibition); for percent effect (mortality or growth inhibition) at 200 ppm: application rate 200 ppm, L2 larvae, 5 days after infestation
Description: Plutella xylostella (Diamond Back Moth)
(§1) 24-well microtiter plates with artificial diet were treated with aqueous test solutions prepared from 10′000 ppm DMSO stock solutions by pipetting. After drying, the plates were infested with L2 larvae (10 to 15 per well). The samples were assessed for mortality and growth inhibition in comparison to untreated samples 5 days after infestation.

Thrips tabaci = Thrips tabaci (onion thrips), feeding/contact activity; conditions: 144 h
Description: Thrips tabaci (Onion Thrips) Feeding/Contact Activity
(§2) Sunflower leaf discs were placed on agar in 24-well microtiter plates and sprayed with aqueous test solutions prepared from 10′000 ppm DMSO stock solutions. After drying the leaf discs were infested with a thrips population of mixed ages. The samples were assessed for mortality 6 days after infestation.

Myzus persicae = Myzus persicae (green peach aphid), intrinsic activity; conditions: 120 h
Text: Myzus persicae (Green Peach Aphid). Intrinsic Activity
Test compounds prepared from 10′000 ppm DMSO stock solutions were applied by pipette into 24-well microtiter plates and mixed with sucrose solution. The plates were closed with a stretched Parafilm. A plastic stencil with 24 holes was placed onto the plate and infested pea seedlings were placed directly on the Parafilm. The infested plate was closed with a gel blotting paper and another plastic stencil and then turned upside down. The samples were assessed for mortality 5 days after infestation.

Tetranychus urticae = Tetranychus urticae (two-spotted spider mite), feeding/contact activity; conditions: 192 h
Description: Tetranychus urticae (Two-Spotted Spider Mite):Feeding/Contact Activity
as §2, with “Bean” for “Sunflower”, “discs” for “discs were placed”, “were” for “and”, “mite” for “thrips”, “on mixed population (mobile stages) 8” for “6”

Diabrotica balteata = Diabrotica balteata (corn root worm), sprayed maize sprouts; conditions: 96 h, read-out: effect in at least one of the two categories (mortality or growth inhibition); for percent effect (mortality or growth inhibition) at 200 ppm: application rate 200 ppm, L2 larvae, 4 days after infestation
Description: Diabrotica balteata (Corn Root Worm)
as §1, with “Maize sprouts placed onto an agar layer in 24-well” for “24-well”, “plates” for “plates with artificial diet”, “spraying.” for “pipetting.”, “(6” for “(10”, “10” for “15”, “4” for “5”

[1] = application rate 200 ppm, L1 larvae, 3 days after infestation
[2] = application rate 200 ppm, mixed ages, 6 days after infestation, read-out: mortality
[3] = test rate 12 ppm, 5 days after infestation, read-out: mortality
[4] = application rate 200 ppm, mixed population (mobile stages), 8 days after infestation, read-out: mortality

Cc1cc(C2=NCC(c3cc(Cl)c(Cl)c(Cl)c3)(C(F)(F)F)C2)ccc1C(=O)NCC1(C#N)CC1 (centres unmarked) [Compound A5, N-[(1-cyanocyclopropyl)methyl]-2-methyl-4-[3-(3,4,5-trichlorophenyl)-3-(trifluoromethyl)-2,4-dihydropyrrol-5-yl]benzamide]
≥ 80%: percent control (mortality, anti-feedant effect or growth inhibition) at 200 ppm (Spodoptera littoralis; [1]) | percent effect (mortality or growth inhibition) at 200 ppm (Euschistus heros) | percent effect (mortality or growth inhibition) at 200 ppm (Plutella xylostella) | mortality at 200 ppm (Thrips tabaci; [2]) | mortality at 12 ppm (Myzus persicae; [3]) | mortality at 200 ppm (Tetranychus urticae; [4]) | percent effect (mortality or growth inhibition) at 200 ppm (Diabrotica balteata)

Cc1cc(C2=COC(c3cc(Cl)cc(Cl)c3)(C(F)(F)F)C2)ccc1C(=O)NCC1(C#N)CC1 (centres unmarked) [Compound A2, N-[(1-cyanocyclopropyl)methyl]-4-[2-(3,5-dichlorophenyl)-2-(trifluoromethyl)-3H-furan-4-yl]-2-methyl-benzamide]
≥ 80%: percent control (mortality, anti-feedant effect or growth inhibition) at 200 ppm (Spodoptera littoralis; [1]) | percent effect (mortality or growth inhibition) at 200 ppm (Euschistus heros) | percent effect (mortality or growth inhibition) at 200 ppm (Plutella xylostella) | mortality at 200 ppm (Thrips tabaci; [2]) | mortality at 12 ppm (Myzus persicae; [3]) | mortality at 200 ppm (Tetranychus urticae; [4]) | percent effect (mortality or growth inhibition) at 200 ppm (Diabrotica balteata)

Cc1cc(C2=NO[C@](c3cc(Cl)cc(Cl)c3)(C(F)(F)F)[C@H]2Cl)ccc1C(=O)NCC1(C#N)CC1 [Compound A3, 4-[(4S,5R)-4-chloro-5-(3,5-dichlorophenyl)-5-(trifluoromethyl)-4H-isoxazol-3-yl]-N-[(1-cyanocyclopropyl)methyl]-2-methyl-benzamide]
≥ 80%: percent control (mortality, anti-feedant effect or growth inhibition) at 200 ppm (Spodoptera littoralis) | percent control (mortality or growth inhibition) at 200 ppm (Euschistus heros) | percent control (mortality or growth inhibition) at 200 ppm (Plutella xylostella) | mortality at 200 ppm (Thrips tabaci) | mortality at 12 ppm (Myzus persicae) | mortality at 200 ppm (Tetranychus urticae) | percent control (mortality or growth inhibition) at 200 ppm (Diabrotica balteata)

Cc1cc(C2=NS[C@@](c3cc(Cl)cc(Cl)c3)(C(F)(F)F)C2)ccc1C(=O)NCC1(C#N)CC1 [Compound A1, N-[(1-cyanocyclopropyl)methy]-4-[(5S)-5-(3,5-dichlorophenyl)-5-(trifluoromethyl)-4H-isothiazol-3-yl]-2-methyl-benzamide]
≥ 80%: percent control (mortality, anti-feedant effect or growth inhibition) at 200 ppm (Spodoptera littoralis; [1]) | percent effect (mortality or growth inhibition) at 200 ppm (Euschistus heros) | percent effect (mortality or growth inhibition) at 200 ppm (Plutella xylostella) | mortality at 200 ppm (Thrips tabaci; [2]) | mortality at 12 ppm (Myzus persicae; [3]) | mortality at 200 ppm (Tetranychus urticae; [4]) | percent effect (mortality or growth inhibition) at 200 ppm (Diabrotica balteata)

Cc1cc(C2=NCC(c3cc(Cl)c(F)c(Cl)c3)(C(F)(F)F)C2)ccc1C(=O)NCC1(C#N)CC1 (centres unmarked) [Compound A4, N-[(1-cyanocyclopropyl)methyl]-4-[3-(3,5-dichloro-4-fluorophenyl)-3-(trifluoromethyl)-2,4-dihydropyrrol-5-yl]-2-methyl-benzamide]
≥ 80%: percent control (mortality, anti-feedant effect or growth inhibition) at 200 ppm (Spodoptera littoralis; [1]) | percent effect (mortality or growth inhibition) at 200 ppm (Euschistus heros) | percent effect (mortality or growth inhibition) at 200 ppm (Plutella xylostella) | mortality at 200 ppm (Thrips tabaci; [2]) | mortality at 12 ppm (Myzus persicae; [3]) | mortality at 200 ppm (Tetranychus urticae; [4]) | percent effect (mortality or growth inhibition) at 200 ppm (Diabrotica balteata)
